Experimental data taken from patent publication US8691818B2, “Cyclic triazo and diazo sodium channel blockers” (University Of Greenwich, priority 2008, dated 2014).
pIC50: −log10 of the molar value. Where a name gives a salt, the structure may show the parent alone.

Columns and labels:
[1] = target: T1, DiHydroFolate Reductase (DHFR) (Rattus norvegicus, UniProt Q920D2); assay: Inhibition of binding of [3H]methotrexate to rat liver homogenate supernatant; conditions: 125 μM; read-out: [3H]mtx binding (% inhibition @ 125 μM)
T1 construct: from tissue; host or cells: rat liver homogenate supernatant
T1 sequence (Q920D2 1-187): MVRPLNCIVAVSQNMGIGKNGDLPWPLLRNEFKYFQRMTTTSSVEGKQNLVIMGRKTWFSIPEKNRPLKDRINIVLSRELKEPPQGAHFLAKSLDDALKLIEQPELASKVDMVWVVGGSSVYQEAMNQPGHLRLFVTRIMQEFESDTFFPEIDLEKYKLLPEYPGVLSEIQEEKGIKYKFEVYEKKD
Protocol: All steps were carried out at 4° (or on ice). Freshly dissected rat liver was dissected into 0.25M ice-cold Sucrose and subsequently homogenised (U-turrax) in 50 mM pH 6.0 phosphate buffer (10 ml/g tissue) containing 15 mM Dithiothreitol. The resulting homogenate was centrifuged@47,500×g for 20 min and supernatant (filtered through cotton wool to remove fatty lumps) stored @ −80° before use (Rothenberg et al).
Inhibition of the binding of [^3H]methotrexate to rat liver homogenate supernatant fractions were carried out essentially as described by Arons et al, 1975.
(§1) Data are presented as mean±sem of number of experiments indicated in brackets.

sodium channel = assay: [14C]guanidine flux: veratrine-evoked uptake of [14C]guanidine into rat forebrain synaptosomes (primary sodium channel assay); format: biochemical; conditions: 30° for 2½ min
Protocol: The screening strategy is designed to select compounds with appropriate sodium channel blocking activity and low side effect liability. To this end all compounds are processed through the primary sodium channel assay (veratrine-evoked uptake of [^14C]guanidine into rat forebrain synaptosomes) and IC50 values computed from generated concentration-effect curves.
Experiments were performed using forebrain (whole brain less cerebellum/medulla) from Male Wistar rats weighing 175-250 g. All efforts were made to reduce the number of animals used and all experiments were carried out in accordance with the UK Animals (Scientific Procedures) Act, 1986 and the European Community Council Directive of 24 Nov. 1986 (86/609/EEC). Following killing of animals by stunning and decapitation, the forebrain (whole brain less cerebellum/medulla) was rapidly dissected and transferred to a weighed tube containing ice-cold 0.25M sucrose.
Synaptosomes (heavy and light mitochondrial fraction containing synaptosomes) were prepared by transferring the forebrain (of known wet weight) to a glass Potter vessel to which 9 volumes ice-cold 0.25M sucrose had been added and homogenising, using a teflon pestle, by 8 ‘up and down strokes’ of a Braun Potter S motor driven homogeniser set to 900 rpm. The resulting homogenate was centrifuged at 1036×g at 4° for 10 min and the supernatant collected. The remaining pellet was resuspended, as above, in fresh ice-cold 0.25M sucrose and the centrifugation step repeated. The supernatant fractions were pooled and centrifuged at 40,000×g (average) at 4° for 15 min and the resulting pellet resuspended in the appropriate assay buffer at a concentration of 20-25 mg wet weight per ml appropriate assay buffer.
Both assays were carried out using 14 ml polypropylene test tubes to which a range of concentrations of the compounds under test were added.
The [^14C] guanidinine flux assay was measured using the method of Pauwels P J et al (1986) but carried out@30° for 2½ min.
as §1

Row | SMILES | melting point | inhibition at 125 µM [1] [%] | pIC50 (sodium channel)
1 | CCn1nc(-c2cccc(C(F)(F)F)c2Cl)c(N)nc1=N (as salt: methanesulphonate) [CEN-178, 5(3)-Amino-6-(2-chloro-3-trifluoromethyphenyl)-2,3(2,5)-dihydro-3(5)-imino-2-ethyl-1,2,4-triazine methanesulphonate] | 207 to 209 °C |  | 
2 | Nc1nnc(-c2ccsc2)c(N)n1 [CEN-64, 3,5-Diamino-6-(3-thienyl)-1,2,4-triazine] | 199 to 201 °C | 52 | < 2.70
3 | Nc1nnc(-c2ccccc2Br)c(N)n1 [CEN-68, 3,5-Diamino-6-(2-bromophenyl)-1,2,4-triazine] | 198 to 200 °C | 101 | 3.10
4 | Nc1nnc(-c2cccc(Br)c2)c(N)n1 [CEN-69, 3,5-Diamino-6-(3-bromophenyl)-1,2,4-triazine] | 221 to 222 °C | 66 | 3.11
5 | Nc1nnc(-c2cc(Cl)sc2Cl)c(N)n1 [CEN-71, 3,5-Diamino-6-[3-(2,5 dichlorothienyl)]-1,2,4-triazine] | 190 to 192 °C | 54 | 3.29
6 | Nc1nnc(-c2ccccc2-c2ccccc2)c(N)n1 [CEN-74, 3,5-Diamino-6-(2-biphenyl)-1,2,4-triazine] | 222 to 224 °C | 99 | 3.53
7 | Nc1nnc(-c2ccc(-c3ccccc3)cc2)c(N)n1 [CEN-82, 3,5-Diamino-6-(4-biphenyl)-1,2,4-triazine] | 282 to 284 °C | -8 | < 3.00
8 | COc1cc(-c2nnc(N)nc2N)cc(OC)c1OC [CEN-95, 3,5-Diamino-6-(3,4,5 trimethoxyphenyl)-1,2,4-triazine] | 309 to 311 °C | 6 | < 3.00
9 | Nc1nnc(-c2ccccc2Oc2ccccc2)c(N)n1 [CEN-97, 3,5-Diamino-6-(2-phenoxphenyl)-1,2,4-triazine] | 200 to 202 °C | 101 | 3.44
10 | Nc1nnc(-c2c(Cl)cccc2Cl)c(N)n1 [CEN-104, 3,5-Diamino-6-(2,6-dichlorophenyl)-1,2,4-triazine] | 160 to 162 °C | 23 | < 3.00
11 | Nc1nnc(-c2ccc(-c3ccccc3)o2)c(N)n1 [CEN-107, 3,5-Diamino-6-[2-(5-phenylfuryl)]-1,2,4-triazine] | 247 to 249 °C | 48 | 2.93
12 | Nc1nnc(-c2cccc(OC(F)(F)C(F)F)c2)c(N)n1 [CEN-108, 3,5-Diamino-6-[3-(1,1,2,2-tetrafluoroethoxy)phenyl]-1,2,4-triazine] | 199 to 200 °C | 81 | 3.09
13 | COc1ccc(-c2nnc(N)nc2N)cc1OC [CEN-115, 3,5-Diamino-6-(3,4-dimethoxyphenyl)-1,2,4-triazine] | 288 to 290 °C | 61 | < 3.00
14 | Nc1nnc(-c2c3ccccc3cc3ccccc23)c(N)n1 [CEN-118, 6-(9-Anthracenyl)-3,5-diamino-1,2,4-triazine] | 350 to 352 °C | -7 | 2.94
15 | Nc1nnc(-c2cc(Br)c(Br)s2)c(N)n1 [CEN-122, 3,5-Diamino-6-[2-(4,5-dibromothienyl)]-1,2,4-triazine] | 318 to 320 °C | 86 | < 3.00
16 | Nc1nnc(-c2cccc(OCc3ccccc3)c2)c(N)n1 [CEN-123, 3,5-Diamino-6-(3-Benzyloxyphenyl)-1,2,4-triazine] | 284 to 286 °C | 86 | 4.38
17 | Nc1nnc(-c2ccc(OCc3ccccc3)cc2)c(N)n1 [CEN-131, 3,5-Diamino-6-(4-Benzyloxyphenyl)-1,2,4-triazine] | 205 to 207 °C | 94 | 3.54
18 | Nc1nnc(-c2ccccc2Cl)c(-c2ccccc2Cl)n1 [CEN-132, 3-Amino-5,6-bis(2-chlorophenyl)-1,2,4-triazine] | 240 to 242 °C | 4 | 4.16
19 | Nc1nnc(-c2ccccc2OC(F)(F)C(F)F)c(N)n1 [CEN-137, 3,5-Diamino-6-[2-(1,1,2,2-tetrafluoroethoxy)phenyl]-1,2,4-triazine] | 158 to 160 °C | 23 | < 2.70

Now from value to compound:

Row | melting point | inhibition at 125 µM [1] [%] | pIC50 (sodium channel) | SMILES
20 | 202 to 204 °C |  |  | CCn1nc(-c2sc(Cl)c(Cl)c2Cl)c(N)nc1=N (as salt: methanesulfonate) [CEN-195, 5(3)-Amino-6-{2-(3,4,5-trichloro)thienyl}-2,3(2,5)-dihydro-3(5)-imino-2-ethyl-1,2,4-triazine methanesulfonate]
21 | 258 to 261 °C |  |  | CCn1nc(-c2cc(C(C)(C)C)cc(C(C)(C)C)c2)c(N)nc1=N (as salt: methanesulphonate) [CEN-189, 5(3)-Amino-6-(3,5 bis-tert-butylphenyl)-2,3(2,5)-dihydro-3(5)-imino-2-ethyl-1,2,4-triazine methanesulphonate]
22 | 148 to 150 °C |  |  | Nc1nnc(-c2ccccc2OC(F)(F)F)c(N)n1 [CEN-56, 3,5-Diamino-6-(2-trifluoromethoxyphenyl)-1,2,4-triazine]
23 | 271 to 272 °C (dec.) | 44 | < 2.70 | Nc1nnc(-c2cccs2)c(N)n1 [CEN-57, 3,5-Diamino-6-(2-thienyl)-1,2,4-triazine]
24 | 194 to 196 °C | 101 | 3.88 | Nc1nnc(-c2cccc3ccccc23)c(N)n1 [CEN-72, 6-(1-Naphthyl)-1,2,4-triazine-3,5-diamine]
25 | 163 to 165 °C | 82 | 3.72 | Nc1cnc(-c2ccc3ccccc3c2)c(N)n1 [CEN-88, 2,6-Diamino-3-(2-naphthyl)pyrazine]
26 | 202 to 204 °C | -2 | 3.40 | Nc1nnc(-c2cccc3c2CCCC3)c(N)n1 [CEN-94]
27 | 260 to 262 °C | 105 | 3.96 | Nc1nnc(-c2ccc3cc(Br)ccc3c2)c(N)n1 [CEN-96]
28 | 217 to 218 °C | 47 | < 3.00 | Nc1nnc(-c2ccc3c(c2)OCO3)c(N)n1 [CEN-103, 3,5-Diamino-6-(3,4-methylenedioxyphenyl)-1,2,4-triazine]
29 | 160 to 161 °C | 43 | 4.57 | Cn1nc(-c2cccc(Oc3ccccc3)c2)c(N)nc1=N [CEN-106, 5(3)-Amino-6-(3-phenoxyphenyl)-2,3(2,5)-dihydro-3(5)-imino-2-methyl-1,2,4-triazine]
30 | 220 to 222 °C | 80 | < 3.00 | Nc1nnc(-c2ccc3c(c2)OCCO3)c(N)n1 [CEN-109, 3,5-Diamino-6-(3,4-ethylenedioxyphenyl)-1,2,4-triazine]
31 | 344 to 345 °C | 65 | 2.70 | Nc1nnc(-c2cc3ccccc3s2)c(N)n1 [CEN-113, 3,5-Diamino-6-[2-(benzo[b]thiophenyl)]-1,2,4-triazine]
32 | 318 to 320 °C | 46 | 3.76 | Nc1nnc(-c2sc3ccccc3c2Cl)c(N)n1 [CEN-114, 3,5-Diamino-6-[2-(3-chlorobenzo[b]thiophenyl)]-1,2,4-triazine]
33 | 272 to 275 °C | 92 | < 3.00 | Nc1nnc(-c2cc(Br)c(Br)o2)c(N)n1 [CEN-121, 3,5-Diamino-6-[2-(4,5-dibromofuryl)]-1,2,4-triazine]
34 | 265 to 268 °C | 90 | 3.06 | Nc1nnc(-c2ccc(Br)s2)c(N)n1 [CEN-124, 3,5-Diamino-6-[2-(5-bromothienyl)]-1,2,4-triazine]
35 | 215 to 217 °C | 6 | 2.12 | Nc1nnc(-c2sccc2Br)c(N)n1 [CEN-125, 3,5-Diamino-6-[2-(3-bromothienyl)]-1,2,4-triazine]
